These are literature values, as cited in US20120015899A1 (priority 2008, published 2012).

The term pKa denotes the negative logarithm of the acid dissociation constant. On to `Cl.Nc1ccn([C@@H]2O[C@H](CO)[C@@H](O)C2(F)F)c(=O)n1` [Gemcitabine, Cytidine, 2′-deoxy-2′,2′-difluoro-, monohydrochloride], for which the pKa is reported as 3.58.
